Results on 3 compounds are retold here after patent US20100151015A1 (priority 2008, published 2010).

Structures are written as SMILES.

The conditions of series [1]: human, in vivo; cited from earlier work.
In series [2] the test system is psychosis in patients with PD. The conditions noted are these: cited from earlier work.
The nature of series [3]: Solubility of Melperone HCl in various media. Format: physicochemical.
For series [4] the following is noted: cited from earlier work.
In series [5] the test system is psychosis associated with PD. The conditions noted are these: initial open-label studies; cited from earlier work.
The conditions of series [6]: cited from earlier work. This is another data set of the same source.

Consider `CC1CCN(CCCC(=O)c2ccc(F)cc2)CC1` [melperone], for which the “incidence of extrapyramidal side effect (EPS) or tardive dyskinesia” value in series [1] is reported as “low incidence”. Besides, the “time over which efficacy was maintained” value in series [2] (mean daily dose of 37.5 mg) is 2 years. In series [2] (proof-of-concept study), the “efficacy in the treatment of psychosis in patients with PD” value is “has shown efficacy” and the onset of efficacy entry was “rapid (within a week)”. Moreover, in series [3] (higher pH values (above pH=7.5)), the “Solubility in aqueous solutions” value was “poorly soluble”. Moreover, in series [3] (pH range from about 1.2 up to about pH 6.8), the “Solubility in aqueous solutions” value is recorded as “freely soluble”. Besides, in series [4] (oral tablet administration), the “mean Tmax” value was 1.5 to 3.0 h. In series [4] (oral, extensive first-pass metabolism), the absolute oral bioavailability is 50-70%.

As for `OCCOCCN1CCN(C2=Nc3ccccc3Sc3ccccc32)CC1` [quetiapine], in series [5], the “efficacy in psychosis associated with PD” value is on record as “has shown efficacy” and the “patients with worsening of motor symptoms of PD” value was “up to 30%”.

In the case of `CC1CCN(CCCC(=O)c2ccc(F)cc2)CC1.Cl` [Melperone HCl, 1-(4-fluorophenyl)-4-(4-methyl-1-piperidinyl)-1-butanone hydrochloride], in series [6], the pKa was 9.1. The solubility in series [3] (ethanol, organic solvent or mixture) is 88.5 mg/mL; in series [3] (phosphate buffer, aqueous buffer, pH 4.5 (phosphate)) it was 800 mg/mL; in series [3] (phosphate buffer, aqueous buffer, pH 6.8 (phosphate)) it was 800 mg/mL; in series [3] (phosphate buffer, aqueous buffer, pH 7.0 (phosphate)) it was ≥ 100 mg/mL; in series [3] (phosphate buffer, aqueous buffer, pH 7.1 (phosphate)), 51.3 mg/mL; in series [3] (phosphate buffer, aqueous buffer, pH 7.5 (phosphate)), 25.6 mg/mL. For the same compound, the solubility was 800 mg/mL in series [3] (purified water, water) and 700 mg/mL in series [3] (simulated gastric fluid, pH 1.2 (0.1N HCl)).

The pKa is the negative logarithm of the acid dissociation constant. The term solubility denotes the concentration that dissolves in the medium under given conditions.
